Columns and labels:
Assay type in all cases: cell-based
SK-MEL2 melanoma cells = assay: Cell proliferation (cell counting), SK-MEL2 melanoma cells; conditions: Homo sapiens, SK-MEL-2, 144 h; SK-MEL2, 6 days; read-out: 6-day IC50 values for growth inhibition
Method: Human carcinoma cell lines LNCaP (prostate) and SK-MEL2 (melanoma) were obtained from American Type Culture Collection (Manassas, Va.). Cell lines were maintained in RPMI 1640 (Sigma) supplemented with 0.22% sodium bicarbonate, 0.011% sodium pyruvate, 0.45% glucose, 0.24% HEPES, 10% FBS, and 10 mL/L of 100× Antibiotic Antimycotic solution (Sigma). Cells were maintained at 37° C. in the presence of 5% CO2.
Prostate and melanoma cancer cells (2×10^4 per well) were plated in 12-well plates and allowed to attach for 24 hr. The medium was then changed to DMEM:Ham's F-12 medium containing 2.5% charcoal-stripped FBS and either vehicle (DMSO) or different concentrations of the compound were added. […] Each experiment was done in triplicate and results are expressed as means±SE for each set of experiments.

Panc-28 cells = assay: Cell proliferation assay, Panc-28 cells; conditions: Homo sapiens, read-out: IC50 values, inhibition of growth
Method: SW480, HT-29 and HCT-15 human colon cancer cells were provided by Dr. Stan Hamilton (M. D. Anderson Cancer Center (Houston, Tex.). Panc-28 human pancreatic cancer cells and 3T3-L1 pre-adipocytes were obtained from American Type Culture Collection (Manassas, Va.). SW480, HT-29 and Panc-28 cells were maintained in Dulbecco's modified/Ham's F-12 (Sigma-Aldrich, St Louis, Mo.) with phenol red supplemented with 0.22% sodium bicarbonate, 0.011% sodium pyruvate, 5% fetal bovine serum, and 10 mL/L 100× antibiotic antimycotic solution (Sigma). HCT-15 cells were maintained in RPMI 1640 (Sigma) supplemented with 0.22% sodium bicarbonate, 0.011% sodium pyruvate, 0.45% glucose, 0.24% HEPES, 10% fetal bovine serum, and 10 mL/L of 100× antibiotic antimycotic solution (Sigma). Cells were maintained at 37° C. in the presence of 5% CO2.
This assay is performed in 12-well tissue culture plates at the concentration of 2×10^4 cells per well, using DMEM/Ham's F-12 media containing 2.5% charcoal stripped FBS. The cells were counted on the initial day using a Z1 cell counter (Beckman Coulter, Fullerton, Calif.) and then were treated either with vehicle (DMSO) or the indicated triterpenoid compounds, each sample in triplicate. Every 48 hr, fresh medium was added along with the indicated compounds. […] The results are expressed as means±S.E for each set of triplicate.

[1] = tested on: Miapaca-2 pancreatic cancer cells; assay: Western blot of Sp proteins in Miapaca-2 cells; conditions: Miapaca-2, 24 hr
Method: RKO colon cancer cells were treated with BA/CN-BA for 24 hr (FIG. 15A) or 48 hr (FIG. 15B) and Miapaca-2 pancreatic cancer cells were treated with BA/CN-BA for 24 hr (FIG. 15C). Whole cell lysates were examined by Western blot analysis.

| SMILES | IC50 (SK-MEL2 melanoma cells) [µM] | IC50 (Panc-28 cells) [µM] | Sp protein expression [1] |
| --- | --- | --- | --- |
| C=C(C)[C@@H]1CC[C@]2(C(=O)O)CC[C@]3(C)[C@H](CC[C@@H]4[C@@]5(C)CC[C@H](O)C(C)(C)[C@@H]5CC[C@]43C)[C@@H]12 [betulinic acid, Betulinic acid] | 5 to 10 | 1 to 5 |  |
| CC(C)C1CCC2(C(=O)O)CCC3(C)C(CCC4C5(C)C=C(C#N)C(=O)C(C)(C)C5CCC43C)C12 (stereo not drawn) [CN-BA] |  |  | decrease Sp protein expression |

Source: patent publication US20090203661A1, “Betulinic acid, derivatives and analogs thereof and uses therefor” (priority 2006, published 2009)
